One assay deals with Erk2 Q103T/C164L (Rattus norvegicus, UniProt P63086, C164L/Q103T). As to conditions: read-out: Km(ATP); activated Erk2 Q103T/C164L.
Assay [1] deals with T1, p38α T106Q (Mus musculus, UniProt P47811, T106Q). As to the kind of experiment: Kinetics: activity assay at varied ATP concentrations. As to conditions: read-out: Km(ATP); activated p38α T106Q; rate of reaction maintained linearity as high as 1000 μM ATP. Type of assay: biochemical.
The next assay addresses T2, p38δ wt (Mus musculus, UniProt Q9Z1B7).
T2 sequence (Q9Z1B7 1-366): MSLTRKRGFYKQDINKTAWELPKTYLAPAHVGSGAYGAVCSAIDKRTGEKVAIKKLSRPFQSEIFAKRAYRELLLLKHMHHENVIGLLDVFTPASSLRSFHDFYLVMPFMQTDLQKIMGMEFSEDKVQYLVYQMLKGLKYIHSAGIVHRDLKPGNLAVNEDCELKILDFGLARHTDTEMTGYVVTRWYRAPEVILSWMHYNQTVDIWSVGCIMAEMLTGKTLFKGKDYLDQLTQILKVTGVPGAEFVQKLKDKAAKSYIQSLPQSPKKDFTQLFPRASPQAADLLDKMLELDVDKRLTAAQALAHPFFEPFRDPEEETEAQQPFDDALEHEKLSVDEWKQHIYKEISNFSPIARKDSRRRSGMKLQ
The assay is described as above. To be noted: read-out: Km(ATP); activated p38δ wt. Type of assay: biochemical.

A further assay has as its target Erk2 wt (Rattus norvegicus, UniProt P63086). As to conditions: read-out: Km(ATP); activated Erk2 wt.
A further assay has as its target Jnk3 wt (Homo sapiens, UniProt P53779). Briefly: Kinetics: activity assay at varied ATP concentrations. Type of assay: biochemical. As to conditions: read-out: Km(ATP); activated Jnk3 wt.
A further assay concerns the target Erk2 Q103T (Rattus norvegicus, UniProt P63086, Q103T). As to conditions: read-out: Km(ATP); activated Erk2 Q103T.
The next assay concerns the target T3, p38δ M107T (Mus musculus, UniProt Q9Z1B7, M107T).
T3 sequence (Q9Z1B7 1-366 M107T): T2 sequence (Q9Z1B7 1-366) with M107T
As to the kind of experiment: Kinetics: activity assay at varied ATP concentrations. Type of assay: biochemical. To be noted: read-out: Km(ATP); activated p38δ M107T.

For another assay, the target named is Jnk3 M146I (Homo sapiens, UniProt P53779, M146I). The assay is described as above. The class given is biochemical. As to conditions: read-out: Km(ATP); activated Jnk3 M146I.
A further assay concerns the target Erk2 Q103A/C164L (Rattus norvegicus, UniProt P63086, C164L/Q103A). As to conditions: read-out: Km(ATP); activated Erk2 Q103A/C164L.
Assay [2] deals with T4, p38α wt (Mus musculus, UniProt P47811). Briefly: Kinetics: activity assay at varied ATP concentrations. The class given is biochemical. As to conditions: read-out: Km(ATP); activated p38α wt.
For assay [3], the target named is T1, p38α T106Q. As to the kind of experiment: Kinase activity assay. Type of assay: biochemical.
The target of assay [4] is T4, p38α wt. As to the kind of experiment: Kinase activity assay. Type of assay: biochemical.

Numbering of substitutions follows the chain as printed. Where only a bound is given, the exact number is not on record here.

T1 sequence (P47811 whole entry T106Q): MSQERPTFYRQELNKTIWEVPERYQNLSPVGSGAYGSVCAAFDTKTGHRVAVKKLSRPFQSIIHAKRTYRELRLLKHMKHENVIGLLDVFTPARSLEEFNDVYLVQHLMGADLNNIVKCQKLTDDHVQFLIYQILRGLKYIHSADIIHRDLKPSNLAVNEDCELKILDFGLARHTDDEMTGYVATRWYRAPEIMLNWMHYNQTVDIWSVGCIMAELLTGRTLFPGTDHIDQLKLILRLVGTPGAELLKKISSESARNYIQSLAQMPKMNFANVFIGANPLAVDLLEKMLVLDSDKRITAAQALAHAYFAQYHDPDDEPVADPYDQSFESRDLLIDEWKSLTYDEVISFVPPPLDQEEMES
T4 sequence (P47811 whole entry): as the sequence (P47811 whole entry T106Q) above, with Q106T counted along it
Chain of Jnk3 wt (P53779 whole entry): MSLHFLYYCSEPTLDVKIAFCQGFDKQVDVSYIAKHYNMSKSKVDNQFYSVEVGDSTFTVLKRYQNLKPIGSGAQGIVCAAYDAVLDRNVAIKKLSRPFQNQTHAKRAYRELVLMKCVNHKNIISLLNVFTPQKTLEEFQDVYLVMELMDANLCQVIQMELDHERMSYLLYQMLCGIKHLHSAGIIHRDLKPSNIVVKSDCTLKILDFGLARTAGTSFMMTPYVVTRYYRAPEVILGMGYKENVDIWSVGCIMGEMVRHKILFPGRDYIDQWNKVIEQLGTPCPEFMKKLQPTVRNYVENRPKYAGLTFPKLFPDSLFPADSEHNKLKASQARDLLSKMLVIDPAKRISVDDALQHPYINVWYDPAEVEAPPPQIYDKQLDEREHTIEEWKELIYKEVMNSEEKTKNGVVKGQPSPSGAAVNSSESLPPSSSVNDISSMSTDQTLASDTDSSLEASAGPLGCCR
Chain of Jnk3 M146I (P53779 whole entry M146I): as the sequence (P53779 whole entry) above, with M146I counted along it

Usually Km stands for the substrate concentration at which the rate is half of its maximum. As for `Nc1ncnc2c1ncn2[C@@H]1O[C@H](COP(=O)(O)OP(=O)(O)OP(=O)(O)O)[C@@H](O)[C@H]1O` [ATP], the Km on Erk2 Q103T/C164L was 180 ± 20 µM; at p38α T106Q [1], over 1 mM; on p38δ wt, 91 ± 6 µM; at Erk2 wt, 120 ± 10 µM; on Jnk3 wt, 8.3 ± 0.6 µM; at Erk2 Q103T, 83 ± 5 µM. In addition, the Km on p38δ M107T was 380 ± 40 µM; on Jnk3 M146I it was 66 ± 3 µM; on Erk2 Q103A/C164L, 137 ± 6 µM; on p38α wt [2], 229 ± 16 µM.
What is called Ki is the dissociation constant of the complex between target and ligand, obtained from inhibition or displacement. The low end stands for a stronger hold on the target, the high end for a looser hold on the target. With `Cc1ccc(C(=O)Nc2ccc(CN3CCN(C)CC3)c(C(F)(F)F)c2)cc1C#Cc1cnc2cccnn12` [L1, Iclusig], the Ki at p38α T106Q [3] came to 3.7 ± 0.4 µM; at p38α wt [4], 8.1 ± 0.2 nM.

The record behind these values is article PMC3742363 (Chemistry & biology, 2013).
